The values that follow come from BindingDB's records for patent US20250230171 (Moma Therapeutics, 2025).

One may read the pIC50 as the IC50 on a negative log10 scale, so that one unit is a factor of ten. A high value points to a small IC50.

pIC50: −log10 of the molar value.

The target of this assay is T1, DNA polymerase theta (POLQ) (2-894).
T1 construct: 2-894
Briefly: ATPase Assay. As for the experimental part:
POLθ-mediated ATP hydrolysis was measured using the ADP-Glo Kinase Assay (Promega Corporation, Madison, WI). Reactions were performed in white 384-well small-volume microplates (Greiner Bio-One, Frickenhausen, Germany) using a total volume of 15 μL. The ATPase reaction consisted of 1 nM biotinylated Avi-POLθ[2-894], 5 nM of a 50 nucleotide poly-thymine repeat single-stranded DNA (PolyT(50) ssDNA), and 100 μM ATP in 5 μL of assay buffer (50 mM Tris, pH 7.5, 80 mM KCl, 10 MgCl2, 1 mM DTT, 5% glycerol, 0.01% BSA, 0.01% Tween-20). Inhibition of POLΘATPase activity was determined by preparing 11-point serial dilutions of the test compounds in 100% DMSO, then transferring 30 nL of the compounds into the ATPase reaction using an Echo acoustic liquid handler (Beckman Coulter, Brea, CA). DMSO-treated wells containing either all of the reaction components (1 nM biotinylated Avi-POLθ[2-894], 5 nM PolyT(50) ssDNA, 100 μM ATP) or with assay buffer substituted for the biotinylated Avi-POLθ[2-894](0 nM biotinylated Avi-POLθ[2-894], 5 nM PolyT(50) ssDNA, 100 μM ATP) were used to define the maximum and minimum response in the assay. Following a one-hour incubation at ambient temperature, 5 μL of ADP-Glo Reagent was added to the ATPase reaction, and this mixture was allowed to incubate at ambient temperature for an additional hour. Lastly, 5 μL of Kinase Detection Reagent was added, followed by a third one-hour incubation at ambient temperature. The reagent concentrations listed represent the amounts only in the 5 μL ATPase reaction volume.
Compound `COc1cnc(Cl)cc1-c1cc(C)ncc1C(=O)Nc1nc2c(s1)CN(C(=O)C1CCCC(OC(F)(F)F)C1)C2` (racemic) [US20250230171, Compound 485] showed a pIC50 of 8.10.

On to `COc1cnc(Cl)cc1-c1cc(C)ncc1C(=O)Nc1nc2c(s1)CN(C(=O)C1CC13CC3)C2` (racemic) [US20250230171, Compound 535], for which the pIC50 is 7.49.

As to `COc1cnc(Cl)cc1-c1cc(C)ncc1C(=O)Nc1nc2c(s1)CN(C(=O)c1ccc(OC(F)F)nc1)C2` [US20250230171, Compound 32], the pIC50 was 8.10.

Compound `COc1cnc(Cl)cc1-c1cc(C)ncc1C(=O)Nc1nc2c(s1)CN(C(=O)c1ccc(C(F)F)c(Cl)c1)C2` [US20250230171, Compound 381] showed a pIC50 of 8.10.

As for `COc1cnc(Cl)cc1-c1cc(C)ncc1C(=O)Nc1nc2c(s1)CN(C(=O)c1ccc(C(F)F)cc1F)C2` [US20250230171, Compound 382], the pIC50 is 8.10.

On to `COc1cnc(Cl)cc1-c1cc(C)ncc1C(=O)Nc1nc2c(s1)CN(C(=O)c1ccc(C(F)F)nc1OC)C2` [US20250230171, Compound 384], for which the pIC50 was 8.10.

In the case of `COc1cnc(Cl)cc1-c1cc(C)ncc1C(=O)Nc1nc2c(s1)CN(C(=O)c1ncc(C(F)F)cn1)C2` [US20250230171, Compound 400], the pIC50 is 8.10.

In the case of `COc1cnc(Cl)cc1-c1cc(C)ncc1C(=O)Nc1nc2c(s1)CN(C(=O)c1ccc(C(F)F)c(F)c1)C2` [US20250230171, Compound 403], the negative logarithm of the IC50 (pIC50) is 8.10.

Regarding `COc1cnc(Cl)cc1-c1cc(C)ncc1C(=O)Nc1nc2c(s1)CN(C(=O)c1c(Cl)c(C)nn1C)C2` [US20250230171, Compound 408], the pIC50 was 8.10.

Compound `COc1cnc(Cl)cc1-c1cc(C)ncc1C(=O)Nc1nc2c(s1)CN(C(=O)c1ccc(F)c(Cl)n1)C2` [US20250230171, Compound 411] had a pIC50 of 8.10.

In turn, `COc1cnc(Cl)cc1-c1cc(C)ncc1C(=O)Nc1nc2c(s1)CN(C(=O)c1ncc(C(F)F)cc1OC)C2` [US20250230171, Compound 412] showed a pIC50 of 8.10.

`COc1cnc(Cl)cc1-c1cc(C)ncc1C(=O)Nc1nc2c(s1)CN(C(=O)c1nc(C(F)F)ccc1OC)C2` [US20250230171, Compound 415] had a pIC50 of 8.10.

`COc1cnc(Cl)cc1-c1cc(C)ncc1C(=O)Nc1nc2c(s1)CN(C(=O)c1cnc(C)c(C)n1)C2` [US20250230171, Compound 416] showed a negative-log IC50 (pIC50) of 8.10.

`COc1cnc(Cl)cc1-c1cc(C)ncc1C(=O)Nc1nc2c(s1)CN(C(=O)C1CC3(CC(C)C3)C1)C2` (configuration not stated) [US20250230171, Compound 418] had a pIC50 of 8.10.

In turn, `COc1ccc(C#N)cc1-c1cc(C)ncc1C(=O)Nc1nc2c(s1)CN(C(=O)c1cccc(Cl)c1OC)C2` [US20250230171, Compound 422] gave a pIC50 of 8.10.

`COc1cnc(Cl)cc1-c1cc(C)ncc1C(=O)Nc1nc2c(s1)CN(C(=O)c1nccc(C(F)(F)F)n1)C2` [US20250230171, Compound 431]: the negative-log IC50 (pIC50) is 8.10.

Compound `COc1ccc(C#N)cc1-c1cc(C)ncc1C(=O)Nc1nc2c(s1)CN(C(=O)c1cc(C(F)F)ccc1F)C2` [US20250230171, Compound 433] had a pIC50 of 8.10.

As for `COc1cnc(Cl)cc1-c1cc(C)ncc1C(=O)Nc1nc2c(s1)CN(C(=O)c1nn(C)cc1F)C2` [US20250230171, Compound 435], the pIC50 was 8.10.

Regarding `COc1cnc(Cl)cc1-c1cc(C)ncc1C(=O)Nc1nc2c(s1)CN(C(=O)c1cc(Cl)nn1C)C2` [US20250230171, Compound 436], the negative logarithm of the IC50 (pIC50) was 8.10.

The compound `COc1cnc(Cl)cc1-c1cc(C)ncc1C(=O)Nc1nc2c(s1)CN(C(=O)c1nccnc1OC)C2` [US20250230171, Compound 437] showed a negative-log IC50 (pIC50) of 8.10.

`COc1ccc(C#N)cc1-c1cc(C)ncc1C(=O)Nc1nc2c(s1)CN(C(=O)c1ccc(C(F)F)cc1)C2` [US20250230171, Compound 438] had a negative logarithm of the IC50 (pIC50) of 8.10.

The compound `COc1cnc(C(=O)N2Cc3nc(NC(=O)c4cnc(C)cc4-c4cc(Cl)ncc4OC)sc3C2)c(OC)n1` [US20250230171, Compound 440] showed a pIC50 of 8.10.
